target: T1, human Cot/Tpl2 kinase (Homo sapiens, UniProt P41279); assay: Tpl2/Cot kinase assay: GST-MEK1 phosphorylation detected by ELISA (DELFIA Eu); type: biochemical; settings: 0.4 nM Tpl2, 35 nM GST-MEK1, 50 uM ATP, 1 h at 30° C.
T1 construct: human Cot/Tpl2 kinase construct encoding residues 30-398; 6His (N); made in house; host or cells: Sf9 insect cells, baculovirus system (BD Biosciences)
Outline: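 Substrate phosphorylation (GST-MEK1 Ser217/221) quantified by DELFIA europium ELISA, yielding IC50 values. Reaction: 1 h at 30° C, pH 7.2 MOPS buffer, 50 uM ATP, 35 nM GST-MEK1, 0.4 nM monomeric His-Tpl2 purified from Sf9 cells, compounds at 1% final DMSO; stopped with EDTA.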

T1 sequence (P41279 30-398): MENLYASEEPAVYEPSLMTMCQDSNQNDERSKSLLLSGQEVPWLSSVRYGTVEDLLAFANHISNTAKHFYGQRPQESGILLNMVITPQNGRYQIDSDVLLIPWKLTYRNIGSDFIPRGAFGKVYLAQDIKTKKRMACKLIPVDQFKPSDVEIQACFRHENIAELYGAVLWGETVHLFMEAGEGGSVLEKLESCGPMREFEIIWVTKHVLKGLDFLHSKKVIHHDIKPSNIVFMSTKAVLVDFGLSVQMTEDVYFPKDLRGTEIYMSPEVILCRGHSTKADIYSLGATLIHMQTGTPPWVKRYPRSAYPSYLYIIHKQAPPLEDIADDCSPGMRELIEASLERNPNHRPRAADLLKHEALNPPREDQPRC

N#Cc1cnc2ccc(NCc3ccccc3F)cc2c1Nc1ccc(F)c(Cl)c1 [Example 144, 6-(2-fluorobenzylamino)-4-(3-chloro-4-fluorophenylamino)quinoline-3-carbonitrile] and N#Cc1cnc2ccc(NCc3cccc(Cl)c3)cc2c1Nc1ccc(F)c(Cl)c1 [Example 152, 6-(3-chlorobenzylamino)-4-(3-chloro-4-fluorophenylamino)quinoline-3-carbonitrile] are within 1.5-fold of each other in IC50: 920 nM for the first, 1300 nM for the second.

First: N#Cc1cnc2ccc(NCc3cccc(Oc4ccccc4)c3)cc2c1Nc1ccc(F)c(Cl)c1 [Example 150, 6-(3-phenoxybenzylamino)-4-(3-chloro-4-fluorophenylamino)quinoline-3-carbonitrile]
Second: N#Cc1cnc2ccc(NC(=O)c3ccccc3)cc2c1Nc1ccc(F)c(Cl)c1 [Example 1, N-[4-(3-Chloro-4-fluoro-phenylamino)-3-cyano-quinolin-6-yl]-benzamide]
The IC50 of the first is 1.7-fold lower: 6400 nM for the first, 11000 nM for the second.

CN(C)C(=O)c1cc(NCc2cccnc2)cc2c(Nc3cccc(Cl)c3)c(C#N)cnc12 [Example 71, 4-(3-chlorophenylamino)-3-cyano-N,N-dimethyl-6-(pyridin-3-ylmethylamino)quinoline-8-carboxamide] and CN(C)C(=O)c1cc(NCc2ccn[nH]2)cc2c(Nc3ccc(F)c(Cl)c3)c(C#N)cnc12 [Example 89, 6-((1H-pyrazol-5-yl)methylamino)-4-(3-chloro-4-fluorophenylamino)-3-cyano-N,N-dimethylquinoline-8-carboxamide] are within 1.5-fold of each other in IC50: 400 nM for the first, 290 nM for the second.

Going from N#Cc1cnc2ccc(NCc3ccc([N+](=O)[O-])o3)cc2c1Nc1ccc(F)c(Cl)c1 [Example 11, 4-(3-Chloro-4-fluoro-phenylamino)-6-[(5-nitro-furan-2-ylmethyl)-amino]-quinoline-3-carbonitrile] to Cc1nc2ccc(NCc3cccnc3)cc2c(Nc2ccc(F)c(Cl)c2)c1C#N [Example 255, 4-[(3-chloro-4-fluorophenyl)amino]-2-methyl-6-[(pyridin-3-ylmethyl)amino]quinoline-3-carbonitrile], the IC50 rises from 123 nM to over 40000 nM.

Going from N#Cc1cnc2c(Br)cc(NCc3cnc[nH]3)cc2c1NC1CCCC1 [Example 96, 6-((1H-imidazol-5-yl)methylamino)-8-bromo-4-(cyclopentylamino)quinoline-3-carbonitrile] to CN1CCN(c2cc3ncc(C#N)c(Nc4ccc(F)c(Cl)c4)c3cc2NCc2cnc[nH]2)CC1 [Example 161, 6-((1H-imidazol-5-yl)methylamino)-4-(3-chloro-4-fluorophenylamino)-7-(4-methylpiperazin-1-yl)quinoline-3-carbonitrile], the IC50 rises from 440 nM to over 40000 nM.

N#Cc1cnc2c(Br)cc(NCc3nn[nH]c3CNCCO)cc2c1Nc1ccc(F)c(Cl)c1 [Example 295, 8-Bromo-4-(3-chloro-4-fluoro-phenylamino)-6-({5-[(2-hydroxy-ethylamino)-methyl]-1H-[1,2,3]triazol-4-ylmethyl}-amino)-quinoline-3-carbonitrile] and N#Cc1cnc2c(Br)cc(NCc3cn(CCN4CCCCCC4)nn3)cc2c1Nc1ccc(F)c(Cl)c1 [Example 307, 6-{[1-(2-Azepan-1-yl-ethyl)-1H-[1,2,3]triazol-4-ylmethyl]-amino}-8-bromo-4-(3-chloro-4-fluoro-phenylamino)-quinoline-3-carbonitrile] are within 1.5-fold of each other in IC50: 67 nM for the first, 61 nM for the second.

First: N#Cc1cnc2c(Cl)cc(NCc3cn(C4CCC(=O)CC4)nn3)cc2c1Nc1ccc(F)c(Cl)c1 [Example 333, 8-chloro-4-[(3-chloro-4-fluorophenyl)amino]-6-({[1-(4-oxocyclohexyl)-1H-1,2,3-triazol-4-yl]methyl}amino)quinoline-3-carbonitrile]
Second: N#Cc1cnc2c(Cl)cc(NCc3ccc(C(F)(F)F)[n+]([O-])c3)cc2c1Nc1ccc(F)c(Cl)c1 [Example 275, 8-Chloro-4-[(3-chloro-4-fluorophenyl)amino]-6-({[1-oxido-6-(trifluoromethyl)pyridin-3-yl]methyl}amino)quinoline-3-carbonitrile]
The IC50 of the first is 340-fold lower: 1.1 nM for the first, 370 nM for the second. The first is the more potent here.

Work on CN(C)CCSc1cc2ncc(C#N)c(Nc3ccc(F)c(Cl)c3)c2cc1NCc1cnc[nH]1 [Example 163, 6-((1H-imidazol-5-yl)methylamino)-4-(3-chloro-4-fluorophenylamino)-7-(2-(dimethylamino)ethylthio)quinoline-3-carbonitrile] yielded an IC50 of 150 nM.

same assay, conditions: Table 2; Tpl2/Cot kinase, GST-MEK1 substrate, 50 uM ATP

Going from N#Cc1cnc2ccc(NCCN3CCOCC3)cc2c1Nc1ccc(Br)cc1 [Example 355] to N#Cc1cnc2c(Br)cc(NCc3cn(CCN4CCOCC4)cn3)cc2c1Nc1ccc(F)c(Cl)c1 [Example 488], the IC50 falls from over 10000 nM to 41 nM.

First: N#Cc1cnc2c(Cl)cc(NCc3cn(Cc4ccc(C(F)(F)F)cc4)nn3)cc2c1Nc1ccc(F)c(Cl)c1 [Example 583]
Second: N#Cc1cnc2c(Cl)cc(NCc3csnn3)cc2c1Nc1ccc(F)c(Cl)c1 [Example 440]
The IC50 of the first is higher: over 3000 nM for the first, 49 nM for the second.

First: CC(C)n1cnc(CNc2cc(Br)c3ncc(C#N)c(Nc4ccc(F)c(Cl)c4)c3c2)c1 [Example 633]
Second: N#Cc1cnc2c(Br)cc(NCc3cn(CCc4ccccn4)nn3)cc2c1Nc1ccc(F)c(Cl)c1 [Example 558]
The IC50 of the first is higher: over 3000 nM for the first, 3.4 nM for the second. The second is the more potent here.

Compared with CCN1CC(CCn2cc(CNc3cc(Cl)c4ncc(C#N)c(Nc5ccc(F)c(Cl)c5)c4c3)nn2)N(c2ccccc2)C1=S (centres unmarked) [Example 617], CN(CCn1cc(CNc2cc(Cl)c3ncc(C#N)c(Nc4ccc(F)c(Cl)c4)c3c2)nn1)C(=O)OC(C)(C)C [Example 502] is 2.7-fold lower in IC50: 130 nM for the first, 48 nM for the second.

CCN(C[C@@H]1CCCN1)c1cc(Cl)c2ncc(C#N)c(Nc3ccc(F)c(Cl)c3)c2c1 [Example 640] and N#Cc1cnc2c(Cl)cc(NC3CCCC3Cl)cc2c1Nc1ccc(F)c(Cl)c1 (centres unmarked) [Example 628] cannot be ordered by IC50: over 3000 nM for the first, over 3000 nM for the second.

Going from N#Cc1cnc2ccc(NCc3ccccn3)cc2c1NC1CCCCC1 [Example 360] to N#Cc1cnc2c(Br)cc(NCc3cn(CC4CCNCC4)nn3)cc2c1Nc1ccc(F)c(Cl)c1 [Example 496], the IC50 falls from 210 nM to 47 nM (4.5-fold).

First: CN1CCCN(CCCn2cc(CNc3cc(Br)c4ncc(C#N)c(Nc5ccc(F)c(Cl)c5)c4c3)nn2)CC1 [Example 624]
Second: COc1ccsc1CNc1cc(Cl)c2ncc(C#N)c(Nc3ccc(F)c(Cl)c3)c2c1 [Example 445]
The IC50 of the first is 16-fold lower: 70 nM for the first, 1100 nM for the second.

same assay, conditions: Tpl2/Cot kinase, GST-MEK1 substrate, 50 uM ATP

CC(C)N1CCC[C@H]1Cn1cc(CNc2cc(Cl)c3ncc(C#N)c(Nc4ccc(F)c(Cl)c4)c3c2)nn1 [Example 896] and CCN1CCC[C@@H]1Cn1cc(CNc2cc(Cl)c3ncc(C#N)c(Nc4ccc(F)c(Cl)c4)c3c2)nn1 [Example 892] are within 1.5-fold of each other in IC50: 34 nM for the first, 30 nM for the second.

First: CC(=O)N1CCC[C@H]1Cn1cc(CNc2cc(Cl)c3ncc(C#N)c(Nc4ccc(F)c(Cl)c4)c3c2)nn1 [Example 901]
Second: CN1CCCC1CCNC(=O)Cn1cc(CNc2cc(Cl)c3ncc(C#N)c(Nc4ccc(F)c(Cl)c4)c3c2)nn1 (centres unmarked) [Example 817]
The IC50 of the first is 6.9-fold lower: 1 nM for the first, 6.9 nM for the second.

N#Cc1cnc2c(Br)cc(NCc3cn(CCCN4CCNCC4)nn3)cc2c1Nc1ccc(F)c(Cl)c1 [Example 768] and N#Cc1cnc2c(Cl)cc(NCc3cn(CCCN4CCNCC4)nn3)cc2c1Nc1ccc(F)c(Cl)c1 [Example 769] are within 1.5-fold of each other in IC50: 110 nM for the first, 160 nM for the second.

Going from N#Cc1cnc2c(Cl)cc(NCc3cn(C4CCOCC4)nn3)cc2c1Nc1ccc(F)c(Cl)c1 [Example 734] to N#Cc1cnc2c(Cl)cc(NCc3cn(CC4CCCCC4)nn3)cc2c1Nc1ccc(F)c(Cl)c1 [Example 755], the IC50 rises from 14 nM to 790 nM (56-fold). The first is the more potent here.

CC(=O)N(CCNc1cc(Cl)c2ncc(C#N)c(Nc3ccc(F)c(Cl)c3)c2c1)Cc1ccncc1 [Example 844] and CC(=O)N(CCNc1cc(Cl)c2ncc(C#N)c(Nc3ccc(F)c(Cl)c3)c2c1)Cc1cccnc1 [Example 843] are within 1.5-fold of each other in IC50: 60 nM for the first, 58 nM for the second.

CN(C)C(=O)OCCCn1cc(CNc2cc(Br)c3ncc(C#N)c(Nc4ccc(F)c(Cl)c4)c3c2)nn1 [Example 752] and CN(C)C(=O)N1CCC(Cn2cc(CNc3cc(Cl)c4ncc(C#N)c(Nc5ccc(F)c(Cl)c5)c4c3)nn2)CC1 [Example 828] are within 1.5-fold of each other in IC50: 3.5 nM for the first, 2.6 nM for the second.

First: CC(c1ccccc1)n1cc(CNc2cc(Cl)c3ncc(C#N)c(Nc4ccc(F)c(Cl)c4)c3c2)nn1 (centres unmarked) [Example 761]
Second: CC(=O)Nc1ccc(-n2cc(CNc3cc(Cl)c4ncc(C#N)c(Nc5ccc(F)c(Cl)c5)c4c3)nn2)cc1 [Example 802]
The IC50 of the first is 2.7-fold higher: 96 nM for the first, 35 nM for the second. The second is the more potent here.

First: N#Cc1cnc2c(Cl)cc(NCCNC(=O)c3ccccn3)cc2c1Nc1ccc(F)c(Cl)c1 [Example 859]
Second: CN(C)CCC(c1cccnc1)n1cc(CNc2cc(Br)c3ncc(C#N)c(Nc4ccc(F)c(Cl)c4)c3c2)nn1 (centres unmarked) [Example 757]
The IC50 of the first is higher: over 3000 nM for the first, 6.7 nM for the second. The second is the more potent here.

same assay, conditions: Tpl2/Cot kinase, GST-MEK1 substrate, 50 uM ATP, 1 h at 30° C.; Table 2

Going from N#Cc1cnc2c(Cl)cc(NCc3cn(C4CCCN(CCF)CC4)nn3)cc2c1Nc1ccc(F)c(Cl)c1 (centres unmarked) [Example 1011] to N#Cc1cnc2c(Cl)cc(NCc3cn(C4CCCNCC4)nn3)cc2c1Nc1ccc(F)c(Cl)c1 (centres unmarked) [Example 1007], the IC50 rises from 9.1 nM to 16 nM (1.8-fold). The first is the more potent here.

CC(C)(C)OC(=O)N1CCC(n2cc(CNc3cc(Cl)c4ncc(C#N)c(NC5CCC5)c4c3)nn2)CC1 [Example 953] and CN(C)CCn1cc(CNc2cc(Cl)c3ncc(C#N)c(NC4CCCCCC4)c3c2)nn1 [Example 950] are within 1.5-fold of each other in IC50: 810 nM for the first, 620 nM for the second.

Compared with N#Cc1cnc2c(Cl)cc(NCc3cncc(C(O)(C(F)(F)F)C(F)(F)F)c3)cc2c1Nc1ccc(F)c(Cl)c1 [Example 1019], CCCN1C2CCC1CC(n1cc(CNc3cc(Cl)c4ncc(C#N)c(Nc5ccc(F)c(Cl)c5)c4c3)nn1)C2 (centres unmarked) [Example 1055] is lower in IC50: over 3000 nM for the first, 8 nM for the second.

Going from CC(C)N1CCC(c2cc(CNc3cc(Br)c4ncc(C#N)c(Nc5ccc(F)c(Cl)c5)c4c3)[nH]n2)CC1 [Example 1044] to CN1CCCC1CCn1cc(CNc2cc(Cl)c3ncc(C#N)c(NC4CCCC5(CCCC5)C4)c3c2)nn1 (centres unmarked) [Example 972], the IC50 rises from 860 nM to over 3000 nM. The first is the more potent here.
